target: human c-MER catalytic domain (Homo sapiens (Human), UniProt Q12866); experiment: TR-FRET Kinase Activity Biochemical Assay (LanthaScreen); details: 10 uM ATP, 1 hour, kinase not given
Text: For the SAR (structure-activity relationship) and compound screening, LanthaScreen™ TR-FRET (Time-Resolved fluorescence energy transfer) assay was employed using the phospho-tyrosine specific Terbium (Tb)-labelded antibody with a fluorescein labeled poly-GT (glutamate-tyrosine) as a substrate. Upon excitation at 340 nm by UV, the energy from Tb donor of the antibody is transferred to the fluorescein of the phosphorylated poly GT substrate, and fluorescein emits light at 520 nm. The ratio between the intensity of […] was used to quantify the level of kinase activity. The recombinant proteins of human c-MER and AXL catalytic domains, Fluorescein-labeled poly-GT substrate, Tb-labeled anti-phosphorylated tyrosine antibodies, the kinase assay buffer, and 0.5M EDTA solution were purchased (Life technologies, USA). The TR-FRET assays were carried out in the white low volume 384-well plate (Corning, USA). […] 10 mM EDTA was added to terminate the enzyme reaction, and the level of phosphorylation of poly-GT substrate was determined following 30 min incubation with 2 nM Tb-labeled antibody. The fluorescence intensity was measured with Envision™ plate reader (PerkinElmer, USA).

human c-MER catalytic domain, sequence (Q12866 587-858): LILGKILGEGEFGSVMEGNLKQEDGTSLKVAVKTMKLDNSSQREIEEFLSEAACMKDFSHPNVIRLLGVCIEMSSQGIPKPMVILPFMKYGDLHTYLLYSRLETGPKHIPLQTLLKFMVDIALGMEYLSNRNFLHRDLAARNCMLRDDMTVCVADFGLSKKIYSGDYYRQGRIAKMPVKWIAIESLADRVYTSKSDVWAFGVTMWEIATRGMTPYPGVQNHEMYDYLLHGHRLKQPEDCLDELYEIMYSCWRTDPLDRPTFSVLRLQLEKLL

Cn1cc(-c2cnc(N)c(C(=O)N[C@@H]3CCN(C(=O)Nc4ccccc4)C3)c2)cn1 [Example 1, (R)-2-amino-5-(1-methyl-1H-pyrazol-4-yl)-N-(1-(phenylcarbamoyl)pyrrolidin-3-yl)nicotinamide] and Cn1cc(-c2cnc(N)c(C(=O)N[C@@H]3CCN(C(=O)Nc4cccc(Br)c4)C3)c2)cn1 [Example 24, (R)-2-amino-N-(1-((3-bromophenyl)carbamoyl)pyrrolidin-3-yl)-5-(1-methyl-1H-pyrazol-4-yl)nicotinamide] fall in the same range of IC50: 100 to 1000 nM for the first, 100 to 1000 nM for the second.

Nc1ncc(-c2ccc(C(=O)N3CCOCC3)cc2)cc1C(=O)N[C@@H]1CCN(C(=O)Nc2cc(Cl)cc(Cl)c2)C1 [Example 9, (R)-2-amino-N-(1-((3,5-dichlorophenyl)carbamoyl)pyrrolidin-3-yl)-5-(4-(morpholine-4-carbonyl)phenyl)nicotinamide] and Nc1ncc(-c2ccc(CO)cc2)cc1C(=O)N[C@@H]1CCN(C(=O)Nc2cc(Cl)cc(Cl)c2)C1 [Example 10, (R)-2-amino-N-(1-((3,5-dichlorophenyl)carbamoyl)pyrrolidin-3-yl)-5-(4-(hydroxymethyl)phenyl)nicotinamide] fall in the same range of IC50: 10 to 100 nM for the first, 10 to 100 nM for the second.

Cn1cc(-c2cnc(N)c(C(=O)N[C@@H]3CCN(C(=O)Nc4cccnc4)C3)c2)cn1 [Example 13, (R)-2-amino-5-(1-methyl-1H-pyrazol-4-yl)-N-(1-(pyridin-3-ylcarbamoyl)pyrrolidin-3-yl)nicotinamide] and CCc1ccccc1NC(=O)N1CC[C@@H](NC(=O)c2cc(-c3cnn(C)c3)cnc2N)C1 [Example 20, (R)-2-amino-N-(1-((2-ethylphenyl)carbamoyl)pyrrolidin-3-yl)-5-(1-methyl-1H-pyrazol-4-yl)nicotinamide] cannot be ordered by IC50: greater than 1000 nM for the first, greater than 1000 nM for the second.

First: Cn1cc(-c2cnc(N)c(C(=O)N[C@@H]3CCN(C(=O)Nc4cccc(Cl)c4Cl)C3)c2)cn1 [Example 15, (R)-2-amino-N-(1-((2,3-dichlorophenyl)carbamoyl)pyrrolidin-3-yl)-5-(1-methyl-1H-pyrazol-4-yl)nicotinamide]
Second: Cn1cc(-c2cnc(N)c(C(=O)N[C@@H]3CCN(C(=O)Oc4ccccc4N)C3)c2)cn1 [Example 70, 2-aminophenyl (R)-3-(2-amino-5-(1-methyl-1H-pyrazol-4-yl)nicotinamido)pyrrolidine-1-carboxylate]
The IC50 of the first is lower: 10 to 100 nM for the first, greater than 1000 nM for the second. The first is the more potent here.

COc1cc(NC(=O)N2CC[C@@H](NC(=O)c3cc(-c4cnn(C)c4)cnc3N)C2)cc(OC)c1OC [Example 35, (R)-2-amino-5-(1-methyl-1H-pyrazol-4-yl)-N-(1-((3,4,5-trimethoxyphenyl)carbamoyl)pyrrolidin-3-yl)nicotinamide] and Cn1cc(-c2cnc(N)c(C(=O)N[C@@H]3CCN(C(=O)Oc4ccc5ccc(O)cc5c4)C3)c2)cn1 [Example 95, 7-hydroxynaphthalen-2-yl (R)-3-(2-amino-5-(1-methyl-1H-pyrazol-4-yl)nicotinamido)pyrrolidine-1-carboxylate] fall in the same range of IC50: 100 to 1000 nM for the first, 100 to 1000 nM for the second.

CN1CCN(Cc2ccc(-c3cnc(N)c(C(=O)N[C@@H]4CCN(C(=O)Nc5cccc(-c6ccccc6)c5)C4)c3)cc2)CC1 [Example 37, (R)—N-(1-([1,1′-biphenyl]-3-ylcarbamoyl)pyrrolidin-3-yl)-2-amino-5-(4-((4-methylpiperazin-1-yl)methyl)phenyl)nicotinamide] and CN1CCN(Cc2ccc(-c3cnc(N)c(C(=O)N[C@@H]4CCN(C(=O)Oc5cccc(-c6ccccc6)c5)C4)c3)cc2)CC1 [Example 82, [1,1′-biphenyl]-3-yl (R)-3-(2-amino-5-(4-((4-methylpiperazin-1-yl)methyl)phenyl)nicotinamido)pyrrolidine-1-carboxylate] fall in the same range of IC50: 10 to 100 nM for the first, 10 to 100 nM for the second.

Compared with Nc1ncc(-c2ccc(CN3CCC(O)CC3)cc2)cc1C(=O)N[C@@H]1CCN(C(=O)Nc2cccc(-c3ccccc3)c2)C1 [Example 39, (R)—N-(1-([1,1′-biphenyl]-3-ylcarbamoyl)pyrrolidin-3-yl)-2-amino-5-(4-((4-hydroxypiperidin-1-yl)methyl)phenyl)nicotinamide], CN1CCN(Cc2ccc(-c3cnc(N)c(C(=O)N[C@@H]4CCN(C(=O)Oc5ccccc5)C4)c3)cc2)CC1 [Example 118, phenyl (R)-3-(2-amino-5-(4-((4-methylpiperazin-1-yl)methyl)phenyl)nicotinamido)pyrrolidine-1-carboxylate] is higher in IC50: 10 to 100 nM for the first, 100 to 1000 nM for the second. The first is the more potent here.

First: Cn1cc(-c2cnc(N)c(C(=O)N[C@@H]3CCN(C(=S)Nc4ccc(N5CCOCC5)cc4)C3)c2)cn1 [Example 49, (R)-2-amino-5-(1-methyl-1H-pyrazol-4-yl)-N-(1-((4-morpholinophenyl)carbamothioyl)pyrrolidin-3-yl)nicotinamide]
Second: Cc1ccc(N2CC[C@@H](NC(=O)c3cc(-c4cnn(C)c4)cnc3N)C2)cc1 [Example 134, (R)-2-amino-5-(1-methyl-1H-pyrazol-4-yl)-N-(1-(p-tolyl)pyrrolidin-3-yl)nicotinamide]
The IC50 of the first is lower: 100 to 1000 nM for the first, greater than 1000 nM for the second.

CC1CC(C)CC(OC(=O)N2CC[C@@H](NC(=O)c3cc(-c4cnn(C)c4)cnc3N)C2)C1 (stereo partly drawn) [Example 79, 3,5-dimethylcyclohexyl (3R)-3-(2-amino-5-(1-methyl-1H-pyrazol-4-yl)nicotinamido)pyrrolidine-1-carboxylate] and C[C@H]1CCCC[C@H]1OC(=O)N1CC[C@@H](NC(=O)c2cc(-c3cnn(C)c3)cnc2N)C1 [Example 108, (1R,2S)-2-methylcyclohexyl (R)-3-(2-amino-5-(1-methyl-1H-pyrazol-4-yl)nicotinamido)pyrrolidine-1-carboxylate] cannot be ordered by IC50: greater than 1000 nM for the first, greater than 1000 nM for the second.

Compared with CN1CCN(Cc2ccc(Oc3ccc(OC(=O)N4CC[C@@H](NC(=O)c5cc(-c6cnn(C)c6)cnc5N)C4)cc3)cc2)CC1 [Example 113, 4-(4-((4-methylpiperazin-1-yl)methyl)phenoxy)phenyl (R)-3-(2-amino-5-(1-methyl-1H-pyrazol-4-yl)nicotinamido)pyrrolidine-1-carboxylate], Cn1cc(-c2cnc(N)c(C(=O)N[C@@H]3CCN(C(=O)Oc4cccc(-c5ccccc5)c4)C3)c2)cn1 [Example 117, [1,1′-biphenyl]-3-yl (R)-3-(2-amino-5-(1-methyl-1H-pyrazol-4-yl)nicotinamido)pyrrolidine-1-carboxylate] is lower in IC50: 100 to 1000 nM for the first, 10 to 100 nM for the second.

First: Cn1cc(-c2cnc(N)c(C(=O)N[C@@H]3CCN(C(=O)O[C@H]4CCC[C@@H]4OCc4ccccc4)C3)c2)cn1 [Example 120, (1S,2S)-2-(benzyloxy)cyclopentyl (R)-3-(2-amino-5-(1-methyl-1H-pyrazol-4-yl)nicotinamido)pyrrolidine-1-carboxylate]
Second: Cn1cc(-c2cnc(N)c(C(=O)N[C@@H]3CCN(C(=O)OC4CCC(c5ccccc5)C4)C3)c2)cn1 (stereo partly drawn) [Example 121, 3-phenylcyclopentyl (3R)-3-(2-amino-5-(1-methyl-1H-pyrazol-4-yl)nicotinamido)pyrrolidine-1-carboxylate]
The IC50 of the first is higher: greater than 1000 nM for the first, 100 to 1000 nM for the second.

Cn1cc(-c2cnc(N)c(C(=O)N[C@@H]3CCN(C(=O)OC4CCCN(c5ccc(C=O)cc5)C4)C3)c2)cn1 (stereo partly drawn) [Example 123, 1-(4-formylphenyl)piperidin-3-yl (3R)-3-(2-amino-5-(1-methyl-1H-pyrazol-4-yl)nicotinamido)pyrrolidine-1-carboxylate] and Cn1cc(-c2cnc(N)c(C(=O)N[C@@H]3CCN(C(=O)OC4CCN(c5ccccc5)C4)C3)c2)cn1 (stereo partly drawn) [Example 126, 1-phenylpyrrolidin-3-yl (3R)-3-(2-amino-5-(1-methyl-1H-pyrazol-4-yl)nicotinamido)pyrrolidine-1-carboxylate] cannot be ordered by IC50: greater than 1000 nM for the first, greater than 1000 nM for the second.

First: Cn1cc(-c2cnc(N)c(C(=O)N[C@@H]3CCN(C(=O)O[C@@H]4CCN(c5ccccc5)C4)C3)c2)cn1 [Example 127, (R)-1-phenylpyrrolidin-3-yl (R)-3-(2-amino-5-(1-methyl-1H-pyrazol-4-yl)nicotinamido)pyrrolidine-1-carboxylate]
Second: Cn1cc(-c2cnc(N)c(C(=O)N[C@@H]3CCN(C(=O)O[C@H]4CCN(c5ccccc5)C4)C3)c2)cn1 [Example 128, (S)-1-phenylpyrrolidin-3-yl (R)-3-(2-amino-5-(1-methyl-1H-pyrazol-4-yl)nicotinamido)pyrrolidine-1-carboxylate]
The IC50 of the first is higher: greater than 1000 nM for the first, 100 to 1000 nM for the second. The second is the more potent here.

Compared with Cn1cc(-c2cnc(N)c(C(=O)N[C@@H]3CCN(c4ncc([N+](=O)[O-])s4)C3)c2)cn1 [Example 138, (R)-2-amino-5-(1-methyl-1H-pyrazol-4-yl)-N-(1-(5-nitrothiazol-2-yl)pyrrolidin-3-yl)nicotinamide], CC(c1ccccc1Cl)N1CC[C@@H](NC(=O)c2cc(-c3cnn(C4CCNCC4)c3)cnc2N)C1 (stereo partly drawn) [Example 148, 2-amino-N-((3R)-1-(1-(2-chlorophenyl)ethyl)pyrrolidin-3-yl)-5-(1-(piperidin-4-yl)-1H-pyrazol-4-yl)nicotinamide] is lower in IC50: greater than 1000 nM for the first, 10 to 100 nM for the second.

CC(c1cccc(Cl)c1)N1CC[C@@H](NC(=O)c2cc(-c3cnn(C4CCNCC4)c3)cnc2N)C1 (stereo partly drawn) [Example 149, 2-amino-N-((3R)-1-(1-(3-chlorophenyl)ethyl)pyrrolidin-3-yl)-5-(1-(piperidin-4-yl)-1H-pyrazol-4-yl)nicotinamide] and COc1ccccc1CN1CC[C@@H](NC(=O)c2cc(-c3cnn(C4CCNCC4)c3)cnc2N)C1 [Example 167, (R)-2-amino-N-(1-(2-methoxybenzyl)pyrrolidin-3-yl)-5-(1-(piperidin-4-yl)-1H-pyrazol-4-yl)nicotinamide] fall in the same range of IC50: 100 to 1000 nM for the first, 100 to 1000 nM for the second.

— patent US12378224B2 (Dong-A Socio Holdings Co., Ltd., priority 2016, dated 2025)
